Reference: patent US10870102B2, “Radical generating catalyst, method for producing radical, method for producing oxidation reaction product, drug, and drug for agriculture and livestock” (ACENET INC., priority 2015, dated 2020)
Values joined by “and” are separate entries in the source; they are usually repeats but may differ in a detail not shown here. Identical values can stand only once. Like-named read-outs stand apart in the source and are kept apart here.

What was measured:
Escherichia coli MV1184 = assay: MIC/MBC determination, microplate; format: cell-based; details: E. coli; 37° C., 24 hours
[1] = Lewis acidity: rate constant of reaction between CoTPP and oxygen in the presence of a Lewis acid; format: physicochemical
Staphylococcus aureus = assay: MIC/MBC determination, microplate; format: cell-based; details: S. aureus; 37° C., 24 hours

| Molecule | MIC (Escherichia coli MV1184) | kcat [1] | other results |
| --- | --- | --- | --- |
| sodium chlorite [Comp. Ex. 7] | 25< ppm | – | – |
| CCCC[N+](CCCC)(CCCC)CCCC.F[P-](F)(F)(F)(F)F [tetrabutylammonium hexafluorophosphate] | – | >0.1 M^−2 s^−1 | – |
| benzalkonium chloride | – | – | kcat ([1]; rate constant of reaction between CoTPP and oxygen in the presence of a Lewis acid, MeCN, saturated O2, room temperature): 0.18 M^−2 s^−1 |
| sodium chlorite [compound 6] | 30 ppm | – | MBC (Escherichia coli MV1184): 50 ppm; MIC (Staphylococcus aureus): 40 ppm |
| CC(C)(C)CC(C)(C)c1ccc(OCCOCC[N+](C)(C)Cc2ccccc2)cc1.[Cl-] [benzetonium chloride, benzethonium chloride] | – | 0.24 and 0.24 M^−2 s^−1 | – |
